# Measured values taken from ChEMBL document CHEMBL3137440, “DNDi T. cruzi fenarimol series dataset from which preclinical candidate EPL-BS0967 was identified (see also related datasets: CHEMBL3137386 and CHEMBL2448688)”.
# Where “and” joins values, the source holds several entries; their conditions need not be identical. Equal entries are not always repeated.
# Legend:
# [1] = DNDI: Metabolism; type: ADME, Microsome; conditions: rat, microsomes; for hepatic extraction ratio: read-out: EH
# in vitro [2] = conditions: human, microsomes
# Cytochrome P450 3A4 [3] = biological target: T1, Cytochrome P450 3A4 (Homo sapiens, UniProt P08684); experiment: DNDI: CYP Inhibition; type: ADME
# [4] = DNDI: Lipophilicity (gLogD) at pH 7.4; conditions: buffer
# Trypanosoma cruzi [5] = experiment: (§1) DNDI: Chagas in Vitro; type: functional, organism-based, Tulahuen C4 (LacZ)
# [6] = DNDI: Solubility in 0.01M HCl at pH 2 determined by nephelometry
# in vitro [7] = conditions: human, microsomes; remark: listed apart in the source
# Trypanosoma cruzi [8] = experiment: as §1; type: functional, Tulahuen C4 (LacZ)
# [9] = DNDI: Solubility in phosphate buffer at pH 6.5 determined by nephelometry
# in vitro [10] = conditions: human, microsomes; remark: listed apart in the source
# [11] = DNDI: Lipophilicity (gLogD) at pH 3; conditions: buffer
# [12] = (§2) DNDI: Cytotoxicity against L-6 rat myoblasts from skeletal musclE; conditions: L6 rat skeletal muscle myoblasts, IC50
# [13] = human, microsomes
# [14] = human, microsomes; remark: listed apart in the source
# [15] = human, microsomes; remark: listed apart in the source
# L6 = experiment: as §2
# Cytochrome P450 3A4 [16] = biological target: T1, Cytochrome P450 3A4
# [17] = tested on: Trypanosoma brucei rhodesiense; experiment: DNDI: HAT in Vitro; type: functional, organism-based; conditions: ATCC 30027
# [18] = Trypanosoma cruzi, Tulahuen C4 (LacZ)
# T1 sequence (P08684 whole entry): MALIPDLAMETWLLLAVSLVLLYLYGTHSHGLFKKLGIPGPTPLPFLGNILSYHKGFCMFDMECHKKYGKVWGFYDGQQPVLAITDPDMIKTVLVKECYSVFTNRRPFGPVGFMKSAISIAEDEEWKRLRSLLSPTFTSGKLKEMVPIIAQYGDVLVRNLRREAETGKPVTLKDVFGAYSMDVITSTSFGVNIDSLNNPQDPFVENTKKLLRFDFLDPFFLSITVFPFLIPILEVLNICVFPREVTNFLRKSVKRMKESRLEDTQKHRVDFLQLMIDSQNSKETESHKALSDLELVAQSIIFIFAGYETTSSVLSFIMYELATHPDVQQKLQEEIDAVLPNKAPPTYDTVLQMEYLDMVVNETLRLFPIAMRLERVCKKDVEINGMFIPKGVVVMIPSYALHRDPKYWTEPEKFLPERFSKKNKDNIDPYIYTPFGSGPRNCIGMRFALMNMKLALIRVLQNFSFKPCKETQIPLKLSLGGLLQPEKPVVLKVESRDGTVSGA
half-life [1] [min],microsomal CLint [1] [µL/min/mg],hepatic extraction ratio [1],half-life (in vitro [2]) [min],IC50 (Cytochrome P450 3A4 [3]) [nM],chromatographic logD ([4]; pH 7.4),IC50 (Trypanosoma cruzi [5]; [18]) [nM],microsomal CLint (in vitro [7]) [µL/min/mg],hepatic extraction ratio (in vitro [10]),SMILES,solubility kinetic [6] [µg/mL],IC90 (Trypanosoma cruzi [8]; [18]) [nM],solubility kinetic [9] [µg/mL],IC50 [12] [µM],half-life (in vitro [2]; t (1 / 2)) [min],"chromatographic logD ([4]; pH 7.4, logD)",IC50 (Trypanosoma cruzi [5]),microsomal CLint (in vitro [7]; CLint) [µL/min/mg],IC90 (Trypanosoma cruzi [8]),"chromatographic logD ([11]; pH 3, logD)",IC50 [17] [µM],also measured
10.1,171,0.85,24,1500,3.4,5.82,72.3,0.8,O=C(C1CC1)N1CCC(N(c2ccc(Cl)cc2)c2cccnc2)CC1,> 100,13.4,12.5,78.2,,,,,,,,chromatographic logD ([11]; pH 3): 1.6
7.5,231,0.88,12.5,1900,3.8,16,139,0.89,O=C(c1ccccc1)N1CCC(N(c2ccc(Cl)cc2)c2cccnc2)CC1,> 100,61.7,6.3,52.5,,,,,,,,chromatographic logD ([11]; pH 3): 2.1
,,,,,,10,,,FC(F)(F)c1ccc(N(c2cncnc2)C2CCN(c3ccc(C(F)(F)F)nc3)CC2)cc1,,,,,,,15.9 nM,,21 nM and > 100 nM,,> 10,

# The next lines start with the molecule.
SMILES,half-life [1] [min],microsomal CLint [1] [µL/min/mg],hepatic extraction ratio [1],half-life (in vitro [2]) [min],IC50 (Cytochrome P450 3A4 [3]) [nM],chromatographic logD ([4]; pH 7.4),IC50 (Trypanosoma cruzi [5]; [18]) [nM],microsomal CLint (in vitro [7]) [µL/min/mg],hepatic extraction ratio (in vitro [10]),solubility kinetic [6] [µg/mL],IC90 (Trypanosoma cruzi [8]; [18]) [nM],solubility kinetic [9] [µg/mL],IC50 [12] [µM],half-life (in vitro [2]; t (1 / 2)) [min],"chromatographic logD ([4]; pH 7.4, logD)",IC50 (Trypanosoma cruzi [5]),microsomal CLint (in vitro [7]; CLint) [µL/min/mg],IC90 (Trypanosoma cruzi [8]),"chromatographic logD ([11]; pH 3, logD)",IC50 [17] [µM],also measured
CC(O)C(C)N1CCC(N(c2ccc(C(F)(F)F)cc2)c2cccnc2)CC1 (stereo unspecified),,,,,,,,,,> 100,,25,64.8,72.9,2.9,424 nM and 75 nM,23.8,960 nM and > 100 nM,1.3,,EH [13]: 0.57; t (1 / 2) [14]: 55.4 min; hepatic extraction ratio (in vitro [10]; EH): 0.64; CLint [15]: 31.3 µL/min/mg; IC50 (L6): 59.6 µM; IC50 (Cytochrome P450 3A4 [16]): > 20 µM
CC(C)(F)CN1CCC(N(c2ccc(C(F)(F)F)cc2)c2cccnc2)CC1,,,,,,,15,,,> 100,25,3.1,64.9,12.6,5.1,,138,,1.8,> 10,
FC(F)(F)c1ccc(N(c2cccnc2)C2CCN(C(c3ccccc3)C(F)(F)F)CC2)cc1 (stereo unspecified),,,,,,,5130,,,> 100,8140,1.6,> 100,62.6,> 5.3,5130 nM,27.7,8140 nM,> 5.3,> 10,hepatic extraction ratio (in vitro [10]; EH): 0.61; IC50 (Cytochrome P450 3A4 [16]): > 20 µM
